Measured values as given in publication PMC7743076 (bioRxiv, 2021).
Values joined by “and” are separate entries in the source; they are usually repeats but may differ in a detail not shown here. Equal entries are not always repeated. Structures can show the parent of a compound that is named as a salt.

Experiments:
[1] = molecular target: SARS-CoV-2 RBD (RBD Wuhan-1) binding to ACE2 (Severe acute respiratory syndrome coronavirus 2, UniProt P0DTC2)
[2] = system: B.1.617.2 pseudovirus, entry into 293T-ACE2-TMPRSS2 cells; format: cell-based, SARS-CoV-2
[3] = system: B.1.617.1 pseudovirus, entry into 293T-ACE2-TMPRSS2 cells; format: cell-based, SARS-CoV-2; settings: for IC50: read-out: IC50, B.1.617.1 PV transduction assay
[4] = system: SARS-CoV-2 variant pseudoviruses (D614G, P.1., B 1.1.7, B.1.429 and B1.351), entry into 293T-ACE2-TMPRSS2 cells; format: cell-based

| Structure (SMILES) | Inhibition of binding of RBD Wuhan-1 to ACE2 (in words) [1] | Increase of IC50 for B.1.617.2 versus B.1.617.1 [2] | further results |
| --- | --- | --- | --- |
| CC(C)(S)C(=O)N[C@@H](CS)C(=O)O [Bucillamine] | much stronger effects | approximately two-fold | – |
| NCCS [Cysteamine] | much stronger effects | 3–15 fold | IC50 [3]: ~1000 µM; Entry of SARS-CoV-2 PV variants, cells pretreated [4]: not affected; Potency against variant PV entry (in words) [4]: less potent against the other variants tested |
| N[C@@H](CS)C(=O)O [L-cysteine] | – | – | Inhibition of B.1.617.1 PV entry (in words) [3]: intermediate potency |
| O=S(=O)(O)CCS [Mesna, 2-mercaptoethane sulfonate, sodium salt] | much stronger effects | – | IC50, B.1.617.2 PV transduction assay [2]: did not achieve an IC50 value at the doses tested |
| CC(C)(S)[C@@H](N)C(=O)O [Penicillamine] | relatively weak inhibitory effects | – | – |
| O=C(O)[C@@H](S)[C@@H](S)C(=O)O [Succimer, Dimercaptosuccinic acid] | relatively weak inhibitory effects | – | – |
| CO[C@H]1O[C@H](CS)[C@H](O)[C@H](O)[C@H]1O [TDG, methyl 6-thio-6-deoxy-α-D-galactopyranoside] | – | 3–15 fold | Potency higher than compounds with similarly high pKa values (NAC, Mesna) [3]: 5 fold |
| NCCCNCCS [WR-1065] | much stronger effects | 3–15 fold | IC50 [3]: ~1000 µM; IC50 ([2]; read-out: IC50, B.1.617.2 PV transduction assay): 6000 µM and 5000 to 15000 µM |
